Values of other authors as cited in patent US8153661B2, “Controlled delivery system” (Durect Corporation, priority 2004, dated 2012).

CCCCN1CCCCC1C(=O)Nc1c(C)cccc1C (stereo not shown) [bupivacaine]
published estimated toxic plasma concentration ranges: 1 to 4 µg/mL
